Columns and labels:
human ENPP1 = target: T1, human ENPP1 (Homo sapiens, UniProt P22413); assay: ENPP1 assay with ATP substrate (Transcreener AMP2/GMP2 TR-FRET); format: biochemical; conditions: 1 hour at room temperature
T1 construct: made in house
T1 sequence (P22413 1-925): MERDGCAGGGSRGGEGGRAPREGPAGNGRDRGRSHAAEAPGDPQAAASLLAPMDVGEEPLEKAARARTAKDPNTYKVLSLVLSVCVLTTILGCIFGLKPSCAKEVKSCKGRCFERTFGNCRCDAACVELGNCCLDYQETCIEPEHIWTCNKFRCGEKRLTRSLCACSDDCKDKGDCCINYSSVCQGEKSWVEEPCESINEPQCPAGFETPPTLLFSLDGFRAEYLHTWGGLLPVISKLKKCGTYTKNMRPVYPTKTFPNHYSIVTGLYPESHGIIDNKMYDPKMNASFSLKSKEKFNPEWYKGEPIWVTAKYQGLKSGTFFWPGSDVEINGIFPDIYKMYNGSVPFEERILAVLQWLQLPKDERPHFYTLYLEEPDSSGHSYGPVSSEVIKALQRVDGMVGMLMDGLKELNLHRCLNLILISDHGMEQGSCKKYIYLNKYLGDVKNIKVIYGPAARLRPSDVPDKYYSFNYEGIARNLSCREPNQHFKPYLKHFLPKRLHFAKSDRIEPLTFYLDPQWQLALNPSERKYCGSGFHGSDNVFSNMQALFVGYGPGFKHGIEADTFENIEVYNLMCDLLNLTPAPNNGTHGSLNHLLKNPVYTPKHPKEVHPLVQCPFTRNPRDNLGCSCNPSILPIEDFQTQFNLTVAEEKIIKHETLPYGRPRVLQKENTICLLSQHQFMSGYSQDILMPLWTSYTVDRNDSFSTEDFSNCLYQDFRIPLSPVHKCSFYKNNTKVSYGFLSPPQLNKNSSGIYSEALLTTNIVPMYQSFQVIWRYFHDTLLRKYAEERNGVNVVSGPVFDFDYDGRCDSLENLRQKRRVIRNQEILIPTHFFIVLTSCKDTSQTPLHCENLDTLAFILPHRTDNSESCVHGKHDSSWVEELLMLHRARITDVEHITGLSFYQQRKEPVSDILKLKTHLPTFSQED
Summary of the method: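 Reaction ran 1 h at room temperature in pH 7.5 Tris with MgCl2, TCEP, Tween 20 and 1% DMSO. ATP was added as a 300 nM stock and enzyme as an 8.5 μM stock. After EDTA stop, AMP was read by TR-FRET tracer displacement. Percent inhibition used enzyme/no-enzyme controls; IC50 was fitted with a variable slope.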

ENPP3 = target: T2, ENPP3 (Homo sapiens, UniProt O14638); assay: ENPP3 Km ATP assay; format: biochemical; conditions: ATP at Km
T2 sequence (O14638 1-875): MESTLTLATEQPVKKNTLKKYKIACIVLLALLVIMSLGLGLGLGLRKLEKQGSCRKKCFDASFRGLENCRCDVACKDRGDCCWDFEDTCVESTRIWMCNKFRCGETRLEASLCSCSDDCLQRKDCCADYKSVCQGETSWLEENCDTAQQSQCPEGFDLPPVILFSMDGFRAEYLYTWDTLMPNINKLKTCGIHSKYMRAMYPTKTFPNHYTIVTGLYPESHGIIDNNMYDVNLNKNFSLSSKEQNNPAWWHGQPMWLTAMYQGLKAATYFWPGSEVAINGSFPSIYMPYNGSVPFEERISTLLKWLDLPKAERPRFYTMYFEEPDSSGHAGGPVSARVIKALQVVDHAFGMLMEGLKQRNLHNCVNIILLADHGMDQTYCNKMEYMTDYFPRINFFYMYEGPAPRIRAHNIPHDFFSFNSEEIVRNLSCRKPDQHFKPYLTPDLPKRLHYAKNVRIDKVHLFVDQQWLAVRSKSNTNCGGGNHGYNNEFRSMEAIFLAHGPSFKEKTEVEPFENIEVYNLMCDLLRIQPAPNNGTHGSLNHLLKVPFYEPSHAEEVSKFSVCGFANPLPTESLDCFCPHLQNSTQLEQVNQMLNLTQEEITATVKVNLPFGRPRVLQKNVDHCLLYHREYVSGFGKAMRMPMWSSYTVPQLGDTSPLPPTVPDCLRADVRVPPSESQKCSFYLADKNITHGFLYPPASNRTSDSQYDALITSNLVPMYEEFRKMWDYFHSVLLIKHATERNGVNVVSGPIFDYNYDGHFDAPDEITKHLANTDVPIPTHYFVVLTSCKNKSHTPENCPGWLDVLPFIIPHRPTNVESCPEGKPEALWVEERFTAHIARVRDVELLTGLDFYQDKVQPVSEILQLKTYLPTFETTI

SMILES | IC50 (human ENPP1) | IC50 (ENPP3)
COc1ccc(CCC(=O)NC2CCN(c3ncnc4c(C)csc34)CC2)cc1 [Example 3.31, 3-(4-Methoxyphenyl)-N-(1-(7-methylthieno[3,2-d]pyrimidin-4-yl)piperidin-4-yl)propanamide] | > 20 µM | > 20 µM
Clc1ccc(CNc2nc(-c3ccccn3)nc3scc(-c4ccccc4)c23)cc1 [Example 1.10, (4-Chloro-benzyl)-(5-phenyl-2-pyridin-2-yl-thieno[2,3-d]pyrimidin-4-yl)-amine] | > 20 µM | > 20 µM
CCSc1nc(NCc2ccc(S(N)(=O)=O)cc2)c2c(Br)nn(C)c2n1 [Example 2.110, 4-((3-Bromo-6-(ethylsulfanyl)-1-methyl-1H-pyrazolo[3,4-d]pyrimidin-4-yl)aminomethyl)-benzenesulfonamide] | < 0.1 µM | < 0.1 µM
Cn1ncc2c(NCc3ccc(S(N)(=O)=O)cc3F)cc(Cl)nc21 [Example 2.143, 4-(((6-Chloro-1-methyl-1H-pyrazolo[3,4-b]pyridin-4-yl)amino)methyl)-3-fluorobenzenesulfonamide] | < 0.1 µM | < 0.1 µM
COc1cc(CCC(=O)NC2CCN(c3ncnc4c(C)csc34)CC2)ccn1 [Example 3.8] | 1 to 20 µM | > 20 µM
NS(=O)(=O)c1ccc(CNc2cc(-c3ccccn3)nc3scc(-c4ccccc4)c23)cc1 [Example 1.47, 4-(((3-Phenyl-6-(pyridin-2-yl)thieno[2,3-b]pyridin-4-yl)amino)methyl)benzenesulfonamide] | < 0.1 µM | 1 to 20 µM
CCNc1nc(NCc2ccc(S(N)(=O)=O)cn2)c2cnn(C)c2n1 [Example 2.139, 6-(((6-(Ethylamino)-1-methyl-1H-pyrazolo[3,4-d]pyrimidin-4-yl)amino)methyl)pyridine-3-sulfonamide] | 1 to 20 µM | 1 to 20 µM
Cn1ncc2c(NCc3ccc(S(N)(=O)=O)cc3)nc(NCc3ccccc3)nc21 [Example 2.48, 4-(((6-(Benzylamino)-1-methyl-1H-pyrazolo[3,4-d]pyrimidin-4-yl)amino)methyl)-benzenesulfonamide] | 0.1 to 1 µM | 0.1 to 1 µM
Cn1ncc2c(NCc3ccc(S(N)(=O)=O)cc3)cc(Cl)nc21 [Example 2.73, 4-(((6-Chloro-1-methyl-1H-pyrazolo[3,4-b]pyridin-4-yl)amino)methyl)benzenesulfonamide] | < 0.1 µM | < 0.1 µM
Cn1ncc2c(NCc3ccc(S(N)(=O)=O)cc3)ccnc21 [Example 2.60, 4-(((1-Methyl-1H-pyrazolo[3,4-b]pyridin-4-yl)amino)methyl)benzenesulfonamide] | < 0.1 µM | 0.1 to 1 µM
NS(=O)(=O)c1ccc(CNc2nc(-c3ccccn3)nc3scc(-c4ccccc4)c23)s1 [Example 1.31, 5-(((5-Phenyl-2-(pyridin-2-yl)thieno[2,3-d]pyrimidin-4-yl)amino)methyl)thiophene-2-sulfonamide] | < 0.1 µM | 0.1 to 1 µM
Cc1cc(CCCNC2CCN(c3ncnc4c(C)csc34)CC2)ccn1 [Example 3.30, N-(3-(2-Methylpyridin-4-yl)propyl)-1-(7-methylthieno[3,2-d]pyrimidin-4-yl)piperidin-4-amine] | 0.1 to 1 µM | > 20 µM
Cc1csc2c(N3CCC(NC(=O)Cc4ccc(F)cc4)CC3)ncnc12 [Example 3.43, 2-(4-Fluorophenyl)-N-(1-(7-methylthieno[3,2-d]pyrimidin-4-yl)piperidin-4-yl)acetamide] | 1 to 20 µM | > 20 µM
Cn1ncc2c(NCc3ccc(S(N)(=O)=O)c(C(F)(F)F)c3)ccnc21 [Example 2.62, 4-(((1-Methyl-1H-pyrazolo[3,4-b]pyridin-4-yl)amino)methyl)-2-(trifluoromethyl)-benzenesulfonamide] | < 0.1 µM | 0.1 to 1 µM
Cc1csc2c(N3CCC(NCCCc4cccc(C(F)(F)F)c4)CC3)ncnc12 [Example 3.12, 1-(7-Methylthieno[3,2-d]pyrimidin-4-yl)-N-(3-(3-(trifluoromethyl)phenyl)propyl)piperidin-4-amine] | 0.1 to 1 µM | > 20 µM
Cn1nnc2c(NCc3ccc(S(N)(=O)=O)cc3)ncnc21 [Example 2.58, 4-(((3-Methyl-3H-[1,2,3]triazolo[4,5-d]pyrimidin-7-yl)amino)methyl)benzenesulfonamide] | 1 to 20 µM | 1 to 20 µM
Fc1ccc(CCCNC2CCN(c3ncnc4c(-c5ccccc5)csc34)CC2)cc1 [Example 3.58, N-(3-(4-Fluorophenyl)propyl)-1-(7-phenylthieno[3,2-d]pyrimidin-4-yl)piperidin-4-amine] | 1 to 20 µM | > 20 µM
Cc1nc(NCc2ccc(S(N)(=O)=O)cc2)c2cnn(C)c2n1 [Example 2.26, 4-(((1,6-Dimethyl-1H-pyrazolo[3,4-d]pyrimidin-4-yl)amino)methyl)benzenesulfonamide] | < 0.1 µM | 0.1 to 1 µM
NS(=O)(=O)c1ccc(CNc2nc(-c3ccccc3)nc3scc(-c4ccccc4)c23)cc1 [Example 1.24, 4-(((2,5-Diphenylthieno[2,3-d]pyrimidin-4-yl)amino)methyl)benzenesulfonamide] | > 20 µM | > 20 µM
COc1nc(NCc2ccc(S(N)(=O)=O)cc2)c2cnn(C)c2n1 [Example 2.94, 4-((6-Methoxy-1-methyl-1H-pyrazolo[3,4-d]pyrimidin-4-yl)aminomethyl)-benzenesulfonamide] | < 0.1 µM | 0.1 to 1 µM
Cc1ccccc1CCC(=O)NC1CCN(c2ncnc3c(C)csc23)CC1 [Example 3.14, N-(1-(7-Methylthieno[3,2-d]pyrimidin-4-yl)piperidin-4-yl)-3-(o-tolyl)propanamide] | > 20 µM | > 20 µM
Cc1csc2c(N3CCC(NCCCc4ccncc4)CC3)nc(-c3ccccc3)nc12 [Example 3.61, 1-(7-Methyl-2-phenylthieno[3,2-d]pyrimidin-4-yl)-N-(3-(pyridin-4-yl)propyl)piperidin-4-amine] | > 20 µM | > 20 µM
Cn1cnc2c(NCc3ccc(S(N)(=O)=O)cc3)ncnc21 [Example 2.8, 4-(((9-Methyl-9H-purin-6-yl)amino)methyl)benzenesulfonamide] | > 20 µM | 1 to 20 µM
Cc1nc(N2CCC(NCCCc3ccc(F)cc3)CC2)c2cnn(C)c2n1 [Example 3.55, 1-(1,6-Dimethyl-1H-pyrazolo[3,4-d]pyrimidin-4-yl)-N-(3-(4-fluorophenyl)propyl)piperidin-4-amine] | > 20 µM | > 20 µM
Cn1nc(Cl)c2c(NCc3ccc(S(N)(=O)=O)cc3)ncnc21 [Example 2.90, 4-((3-Chloro-1-methyl-1H-pyrazolo[3,4-d]pyrimidin-4-yl)aminomethyl)-benzenesulfonamide] | 0.1 to 1 µM | 0.1 to 1 µM
Cc1csc2c(N3CCC(NC(=O)CCc4ccc(F)cc4)CC3)ncnc12 [Example 3.20, 3-(4-Fluorophenyl)-N-(1-(7-methylthieno[3,2-d]pyrimidin-4-yl)piperidin-4-yl)propanamide] | > 20 µM | > 20 µM
